# According to patent US7045545B1, “Aminoalkylbenzofurans as serotonin (5-HT(2c)) agonists” (Eli Lilly and Company, priority 1999, dated 2006):
row,Compound,melting point
1,CC(N)Cc1c(F)ccc2ccoc12.O=C(O)C(=O)O (centres unmarked),200 to 202 °C
2,C[C@H](N)Cc1cc(F)cc2cc(Br)oc12.Cl,202 to 205 °C
3,Cc1coc2c(CC(C)N)cc(F)cc12.O=C(O)C(=O)O (centres unmarked),201 to 202 °C
4,CC(N)Cc1cc([N+](=O)[O-])cc2ccoc12.Cl (centres unmarked),216 to 217 °C (dec.)
5,CC(N)Cc1ccc(F)c2ccoc12.O=C(O)C(=O)O (centres unmarked),172 to 174 °C
